Measurements reported in publication PMC5471521, “Novel selective β1-adrenoceptor antagonists for concomitant cardiovascular and respiratory disease” (The FASEB Journal, 2017).

Assays:
Assay in all cases: P450 in vitro clearance, recombinant Supersomes
Assay type in all cases: in vitro ADME
CYP2D6 = CYP2D6 (Homo sapiens, UniProt P10635); conditions: 2 μM, hydrochloride salts used; one value printed for CYP2D6 and CYP2E1
Protocol: (§1) NDD-713.HCl and -825.HCl (2 μM) and cytochrome P450 (P450) reference substrates (see Supplemental Data for full details) were incubated (37°C) with selected recombinant human P450 isoforms (CYP1A2, CYP2A6, CYP2B6, CYP2C8, CYP2C9, CYP2C19, CYP2D6 CYP2E1, and CYP3A4) in heterologously expressed P450 Supersomes (BD Biosciences) that were suspended in […] Tris-HCl buffer (pH 7.4; for CYP2C9) or 100 mM phosphate buffer (pH 7.4; for the other isoforms) at final P450 concentrations of 85 pmol/ml. Reactions were initiated by additions of an NADPH-regenerating system and quenched at time points over 60 min (reference probes) or 120 min (test compounds) by acetonitrile. Quenched samples were centrifuged and supernatants were collected. NDD-713, -825, and probe metabolites were determined by UPLC-MS relative to calibration standards prepared in quenched matrix, and %substrate that remained was calculated relative to the initial sample concentration. The %substrate that remained vs. time was fitted to exponential decay functions to determine the pseudo first-order rate constant (k/min) for substrate depletion. These were normalized to P450 concentrations (pmol/ml) to obtain in vitro CLint values: CLint, in vitro (μl/min/pmol P450) = [k (min^−1)/P450 concentration […]] × 1000. Studies were carried out by CDCO.

CYP2E1 = biological target: T1, CYP2E1 (Homo sapiens, UniProt P05181); conditions: 2 μM, hydrochloride salts used; one value printed for CYP2D6 and CYP2E1
T1 construct: purchased BD Biosciences
T1 sequence (P05181 whole entry): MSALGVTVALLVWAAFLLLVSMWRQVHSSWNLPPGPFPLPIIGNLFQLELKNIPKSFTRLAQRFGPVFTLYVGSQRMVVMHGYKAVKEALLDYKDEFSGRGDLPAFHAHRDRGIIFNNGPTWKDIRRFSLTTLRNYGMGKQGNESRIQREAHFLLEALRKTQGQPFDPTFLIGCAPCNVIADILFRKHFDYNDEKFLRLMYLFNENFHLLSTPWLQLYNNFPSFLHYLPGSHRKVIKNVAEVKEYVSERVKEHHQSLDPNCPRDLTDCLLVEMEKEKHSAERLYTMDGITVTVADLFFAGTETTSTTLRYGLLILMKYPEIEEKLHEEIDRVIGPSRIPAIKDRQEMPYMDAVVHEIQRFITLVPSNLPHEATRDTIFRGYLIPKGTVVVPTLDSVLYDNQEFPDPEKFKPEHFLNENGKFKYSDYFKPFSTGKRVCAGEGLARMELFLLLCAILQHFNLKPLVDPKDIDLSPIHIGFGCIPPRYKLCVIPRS
Protocol: as §1

CYP2A6 = biological target: T2, CYP2A6 (Homo sapiens, UniProt P11509); conditions: 2 μM, hydrochloride salts used
T2 construct: purchased BD Biosciences
T2 sequence (P11509 whole entry): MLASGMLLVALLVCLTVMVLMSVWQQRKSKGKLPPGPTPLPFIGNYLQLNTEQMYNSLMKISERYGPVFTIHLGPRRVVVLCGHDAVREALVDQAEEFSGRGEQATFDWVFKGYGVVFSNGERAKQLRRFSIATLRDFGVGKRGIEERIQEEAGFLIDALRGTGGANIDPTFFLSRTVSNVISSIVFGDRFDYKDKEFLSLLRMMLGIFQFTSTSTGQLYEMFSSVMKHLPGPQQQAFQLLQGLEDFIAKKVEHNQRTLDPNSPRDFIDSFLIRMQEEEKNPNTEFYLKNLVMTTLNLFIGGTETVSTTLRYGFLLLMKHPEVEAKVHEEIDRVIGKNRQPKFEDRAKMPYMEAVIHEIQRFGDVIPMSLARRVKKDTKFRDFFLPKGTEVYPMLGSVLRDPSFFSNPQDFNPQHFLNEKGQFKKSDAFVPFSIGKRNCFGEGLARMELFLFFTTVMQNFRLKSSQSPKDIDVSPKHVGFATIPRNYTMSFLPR
Protocol: as §1

Chain of CYP2D6 (P10635 whole entry, canonical isoform): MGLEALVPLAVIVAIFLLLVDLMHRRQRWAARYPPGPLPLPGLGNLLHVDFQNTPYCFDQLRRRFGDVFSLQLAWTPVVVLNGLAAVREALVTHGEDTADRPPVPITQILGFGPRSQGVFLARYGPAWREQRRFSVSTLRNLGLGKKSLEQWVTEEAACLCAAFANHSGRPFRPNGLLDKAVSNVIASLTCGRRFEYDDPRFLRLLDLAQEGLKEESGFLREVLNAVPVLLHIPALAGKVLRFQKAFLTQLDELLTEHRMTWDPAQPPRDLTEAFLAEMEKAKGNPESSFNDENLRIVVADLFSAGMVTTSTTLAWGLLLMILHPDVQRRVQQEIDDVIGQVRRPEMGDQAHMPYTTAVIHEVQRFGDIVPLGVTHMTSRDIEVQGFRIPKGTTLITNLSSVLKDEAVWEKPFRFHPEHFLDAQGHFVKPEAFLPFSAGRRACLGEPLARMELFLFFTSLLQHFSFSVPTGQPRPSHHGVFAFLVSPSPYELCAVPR

O=C1NCc2cc(OCCNC[C@H](O)COc3ccc4c(c3)OC[C@@H](COCC3CC3)O4)ccc21 [NDD-825]
P450 in vitro clearance CLint, CYP2D6 (CYP2D6): 0.02 μl/min/pmol P450
P450 in vitro clearance CLint, CYP2E1 (CYP2E1): 0.02 μl/min/pmol P450

NC(=O)c1ccc(OCCNC[C@H](O)COc2ccc3c(c2)OC[C@@H](COCC2CC2)O3)cc1 [NDD-713]
P450 in vitro clearance CLint, CYP2A6 (CYP2A6): 0.02 μl/min/pmol P450
